# Where “and” joins values, the source holds several entries; their conditions need not be identical. Equal entries are not always repeated. Where two headings read alike, the source gives them in different places.
# Assays:
# ovulation [1] = details: 21-day use; cited from earlier work
# [2] = test system: adult female rats with normal cycles; assay: Ovulation inhibition test on rats; assay type: in vivo, rat; details: 5 animals; for Ovulation count, absolute / Ovulation count, mean: 4 days
# Experimental: The efficacy of the composition according to the invention was ascertained by ovulation-inhibiting studies carried out on adult female rats with normal cycles. First, using 5 dose groups plus placebo (0.003 mg, 0.01 mg, 0.03 mg, 0.1 mg and 0.3 mg), the limit dose of levonorgestrel (LNG) was determined at which there is still no ovulation-inhibiting effect.
# With the dose of LNG thus determined (0.01 mg), a comparison test was then carried out in which the ovulation-inhibiting effect of LNG, placebo, meloxicam, piroxicam, and the combination of LNG and meloxicam, was compared against the composition, according to the invention, of LNG plus piroxicam.
# With the onset of the metestrus, 5 animals in each case were treated on four successive days with (a) placebo, (b) 0.01 mg of LNG, (c) 2 mg of piroxicam, (d) 0.01 mg of LNG and 2 mg of piroxicam, (e) 2 mg of meloxicam, and (f) […] of LNG and 3 mg of meloxicam. LNG was given by s.c. administration, and the COX inhibitor was given orally (p.o.).
# In the following test, female rats weighing between 200 and 220 g were used. The animals were housed in macrolon cages in rooms under controlled lighting conditions (12 hours of darkness, 12 hours of light), were fed a standard diet and had access to water ad libitum.
# Levonorgestrel was dissolved in benzyl benzoate/castor oil (1+4 v/v), and the daily dose was given by s.c. administration in a volume of 1 ml/kg body weight.
# The COX inhibitors were suspended in a carrier liquid (85 mg of MyrjR53 (2-hydroxyethyl octadecanoate; CAS no. 9004-99-3) in 100 ml of 0.9% w/v NaCl solution), and the daily dose corresponding to the treatment group was administered orally in a volume of 2 ml/kg body weight.
# (§1) Two cycles were monitored using vaginal smears before the start of the test. Only animals with a regular 4-day cycle were entered in the test. The allocation to the treatment groups was randomized. Starting in the metestrus, the test substance was administered for 4 days (days 1-4) and the cycle continued to be monitored. On day 3 of treatment (proestrus), a retrobulbar blood sample was taken at 9.00 h and from 18.30 h in order to determine the luteinizing hormone (LH). On day 4 (after administration), the animals with vaginal smears showing them in estrus or metestrus underwent unilateral ovariectomy under anaesthetic. Crush preparations were made from the tubes and were examined under a microscope for the presence of oocytes. On day 5, all the animals (the intact animals and those having undergone unilateral ovariectomy) were sacrificed, and the tubes of the animals in estrus and metestrus were prepared and examined in the same way. […] By contrast, the COX inhibitors on their own provide only partial suppression of ovulation.
# (§2) The test set-up corresponds to the one described in Example 1.
# [3] = test system: adult female rats with normal cycles; assay: Ovulation inhibition test on rats; assay type: in vivo, rat
# ovulation [4] = details: cited from earlier work
# [5] = test system: ovulated cumulus-oocyte complexes; assay: In vitro fertilization rate of ovulated cumulus-oocyte complexes after in vivo treatment (Example 3); design: species or system mice; details: n=5 animals
# Description: Substances can influence fertility by reducing the fertilizability of oocytes or cumulus-oocyte complexes. In order to investigate such effects, substances can be administered in vivo and, after ovulation from cumulus/oocyte complexes, can be subjected to in vitro fertilization. The in vitro fertilization rate, with no further test substance being added, allows conclusions to be drawn regarding the in vivo effects of the test substances.
# Immature female mice (strain: B6D2F1, Charles River, Suelzfeld, age: 19-25 days) were housed in macrolon cages in rooms under controlled lighting conditions (12 hours of darkness, 12 hours of light), were fed a standard diet and had access to water ad libitum. The mice were primed with PMSG (Pregnant Mare Serum Gonadotropin) (10 IU/animal i.p.). After 48 hours, an ovulation-triggering stimulus was induced in the animals by administration of 10 IU/animal i.p. The COX inhibitors were suspended in a carrier liquid (85 mg MyrjR53 (2-hydroxyethyl octadecanoate; CAS no. 9004-99-3) in 100 ml of 0.9% w/v NaCl solution), and the daily dose corresponding to the treatment group (n=5 animals per group) was administered in a volume of 0.2 ml p.o. 8 hours before and together with hCG. Fourteen hours after hCG administration, the animals were sacrificed. Ovulated oocytes and cumulus-oocyte complexes were recovered from the ovarian bursa and/or oviduct and subjected to in vitro fertilization, with a sperm count of 40,000 sperm/0.5 ml for 1 hour being used for the fertilization. Twenty-four hours after incubation with the sperm, the number of fertilized oocytes was established and the percentage fertilization rate determined.
# [6] = test system: serum progesterone concentration; assay: Serum progesterone concentration in proestrus at 19.00 h (Example 2); assay type: in vivo, rat
# Experimental: This can be seen as an indicator of the efficiency of the LH peak in changing from a predominantly estrogen-producing ovary (before the LH peak) to a predominantly progesterone-producing ovary (caused by the LH peak). […] By contrast, the literature describes that other COX inhibitors have no effect on the hormonal levels [Pall et al.; Human Reproduction vol. 16, no. 7, pp 1323-1328 (2001); Bata et al., J Clin Pharmacol (2006) 46:925-932]. […] The ovulation rates in the combination with 0.01 mg of levonorgestrel and 0.5 mg of piroxicam (31 oocytes), with 1 mg of piroxicam (19 oocytes) and with 2 mg of piroxicam (0 oocytes) were much lower here and, in the highest dose, even led to complete anovulation (10 animals per group).
# as §1, §2
# [7] = 25 mg on 9 successive days (Pall et al.)
smiles,measurement,setting,value
"C#C[C@]1(OC(C)=O)CC[C@H]2[C@@H]3CCC4=CC(=NO)CC[C@@H]4[C@H]3CC[C@@]21CC (mixture of isomers) [Norgestimate (NGM), Norgestimate]","minimal dose for inhibition of ovulation, p.o. dose/day",ovulation [1],180-250 μg^31
"CC(=O)O[C@]1(C(C)=O)CC[C@H]2[C@@H]3C=C(Cl)C4=CC(=O)[C@@H]5C[C@@H]5[C@]4(C)[C@H]3CC[C@@]21C [Cyproterone acetate (CPA), Cyproterone acetate]","minimal dose for inhibition of ovulation, p.o. dose/day",ovulation [1],1 mg^33
"C#C[C@]1(O)CC[C@H]2[C@@H]3CCC4=CCCC[C@@H]4[C@H]3C(=C)C[C@@]21CC [Desogestrel (DSG), Desogestrel]","minimal dose for inhibition of ovulation, p.o. dose/day",ovulation [1],60 μg^28
"C[C@]12CCC3=C4CCC(=O)C=C4CC[C@H]3[C@@H]1CC[C@@]2(O)CC#N [Dienogest (DNG), Dienogest]","minimal dose for inhibition of ovulation, p.o. dose/day",ovulation [1],1-2 mg^29
"C[C@]12CCC(=O)C=C1[C@@H]1C[C@@H]1[C@H]1[C@@H]3[C@@H]4C[C@@H]4[C@@]4(CCC(=O)O4)[C@@]3(C)CC[C@@H]12 [Drospirenone (DRSP), Drospirenone]","minimal dose for inhibition of ovulation, p.o. dose/day",ovulation [1],2 mg^33
CC(=O)[C@H]1CC[C@H]2[C@@H]3C=CC4=CC(=O)CC[C@@]4(C)[C@@H]3CC[C@]12C [Dydrogesterone],"minimal dose for inhibition of ovulation, p.o. dose/day",ovulation [1],>30 mg^33
C#C[C@]1(O)CC[C@H]2[C@@H]3CCC4=C[C@@H](O)CC[C@@H]4[C@H]3CC[C@@]21C [Ethynodiol],"minimal dose for inhibition of ovulation, p.o. dose/day",ovulation [1],2 mg33
"C#C[C@]1(O)C=C[C@H]2[C@@H]3CCC4=CC(=O)CC[C@@H]4[C@H]3CC[C@@]21CC [Gestodene (GSD), Gestodene]","minimal dose for inhibition of ovulation, p.o. dose/day",ovulation [1],30 µg and 40 to 50 µg
"C#C[C@]1(O)CC[C@H]2[C@@H]3CCC4=CC(=O)CC[C@@H]4[C@H]3CC[C@@]21CC [LNG, levonorgestrel]","Ovulation count, absolute",[2]; LNG 0.01 mg s.c.,35
same,"Ovulation count, mean",[2]; LNG 0.01 mg s.c.,7.0 ± 2.0
same,oocytes ovulated,"[3]; Example 2, LNG on its own (0.01 mg s.c.), 10 animals per group",68 oocytes
same,oocytes ovulated,"[3]; treatment group (b), 0.1 mg of levonorgestrel, 5 animals",35 oocytes
C#C[C@]1(O)CC[C@H]2[C@@H]3CCC4=CCCC[C@@H]4[C@H]3CC[C@@]21C [Lynestrenol],"minimal dose for inhibition of ovulation, p.o. dose/day",ovulation [1],2 mg^33
CC(=O)[C@@]1(C)CC[C@H]2[C@@H]3C=C(C)C4=CC(=O)CC[C@]4(C)[C@H]3CC[C@@]21C [Medrogestone],"minimal dose for inhibition of ovulation, p.o. dose/day",ovulation [1],10 mg^33
"CC(=O)O[C@]1(C(C)=O)CC[C@H]2[C@@H]3C[C@H](C)C4=CC(=O)CC[C@]4(C)[C@H]3CC[C@@]21C [Medroxyprogesterone acetate (MPA), Medroxyprogesterone acetate]","minimal dose for inhibition of ovulation, p.o. dose/day",ovulation [1],10 mg^33
"Cc1cnc(NC(=O)C2=C(O)c3ccccc3S(=O)(=O)N2C)s1 [Meloxicam, meloxicam]","Ovulation count, absolute",[2]; COX inhibitor 2 mg p.o.,28
same,"Ovulation count, mean",[2]; COX inhibitor 2 mg p.o.,5.6 ± 2.5
same,delay in ovulation,ovulation [4]; 30 mg per patient and day on 5 successive days (Bata et al.),5 days
"CC(=O)O[C@]1(C(C)=O)CC[C@H]2[C@@H]3C=C(C)C4=CC(=O)CC[C@@H]4[C@H]3CC[C@@]21C [Nomegestrol acetate (NOMAc), Nomegestrol acetate]","minimal dose for inhibition of ovulation, p.o. dose/day",ovulation [1],2.5 mg^32
"C#C[C@]1(OC(C)=O)CC[C@H]2[C@@H]3CCC4=CC(=O)CC[C@@H]4[C@H]3CC[C@@]21C [Norethisterone acetate (NETA), Norethisterone acetate]","minimal dose for inhibition of ovulation, p.o. dose/day",ovulation [1],0.5 mg^33
C#C[C@]1(O)CC[C@H]2[C@@H]3CCC4=CC(=O)CC[C@@H]4[C@H]3CC[C@@]21C [Norethisterone],"minimal dose for inhibition of ovulation, p.o. dose/day",ovulation [1],0.5 mg^33
"CN1C(C(=O)Nc2ccccn2)=C(O)c2ccccc2S1(=O)=O [Piroxicam, piroxicam]","Ovulation count, absolute",[2]; COX inhibitor 2 mg p.o.,9
same,"Ovulation count, mean",[2]; COX inhibitor 2 mg p.o.,1.8 ± 0.4
same,oocytes ovulated,"[2]; treatment group (c), 2 mg piroxicam on its own",9 oocytes
same,oocytes ovulated,[3]; 1 mg piroxicam alone,28 oocytes
same,oocytes ovulated,"[3]; Example 2, 0.5 mg piroxicam p.o., 10 animals per group",85 oocytes
same,oocytes ovulated,"[3]; Example 2, 1 mg piroxicam p.o., 10 animals per group",56 oocytes
same,oocytes ovulated,"[3]; Example 2, 2 mg piroxicam p.o., 10 animals per group",30 oocytes
same,Fertilization rate (% ± SD),[5]; 2 × 0.15 mg/animal p.o.,19 ± 8%
same,Fertilization rate (% ± SD),[5]; 2 × 0.3 mg/animal p.o.,14 ± 18%
same,Fertilization rate (% ± SD),[5]; 2 × 0.5 mg/animal p.o.,12 ± 7%
same,Progesterone in proestrus at 19.00 h—mean ± SD (n = 10),[6]; 0.5 mg p.o.,237 ± 49
same,Progesterone in proestrus at 19.00 h—mean ± SD (n = 10),[6]; 1 mg p.o.,183 ± 67
same,Progesterone in proestrus at 19.00 h—mean ± SD (n = 10),[6]; 2 mg p.o.,122 ± 94
CC(=O)[C@H]1CC[C@H]2[C@@H]3CCC4=CC(=O)CC[C@]4(C)[C@H]3CC[C@]12C [Progesterone],"minimal dose for inhibition of ovulation, p.o. dose/day",ovulation [1],300 mg^33
CCC(=O)[C@@]1(C)CC[C@H]2[C@@H]3CCC4=CC(=O)CCC4=C3CC[C@@]21C [Promegestone],"minimal dose for inhibition of ovulation, p.o. dose/day",ovulation [1],0.5 mg^33
C[C@H](O)C(=O)[C@@]1(C)CC[C@H]2[C@@H]3CCC4=CC(=O)CCC4=C3CC[C@@]21C [Trimegestone],"minimal dose for inhibition of ovulation, p.o. dose/day",ovulation [1],0.5 mg^33
CS(=O)(=O)c1ccc(C2=C(c3ccccc3)C(=O)OC2)cc1 [rofecoxib],delay in ovulation,ovulation [4]; [7],over 48 hours
same,patients with delay in ovulation of over 48 hours,ovulation [4]; [7],4 of 6

# — patent US9907806B2, “Pharmaceutical composition for emergency contraception” (Bayer Intellectual Property GmbH, priority 2009, dated 2018)
